Results taken from PMC13192270, “RhlR quorum-sensing receptor ligand sensitivity regulates the differential expression of phenazine genes in Pseudomonas aeruginosa” (Journal of Bacteriology, 2026).
Substitutions are numbered along the chain they refer to. Where two headings read alike, the source gives them in different places.

Experiments:
LasR = system: LasR; parameters: method as in PMID 28119451; conditions: cited from earlier work
RhlR (T58V) = biological target: T1, RhlR (T58V) (Pseudomonas aeruginosa, UniProt P54292, T58V); assay: E. coli prhlA-luxCDABE luciferase reporter assay; type: cell-based
T1 construct: expressed in transfected cells; host or cells: E. coli carrying pBAD-A-rhlR mutant, pCS26-prhlA-luxCDABE and pACYC-pqsE or empty pACYC
T1 sequence (P54292 1-241 T58V): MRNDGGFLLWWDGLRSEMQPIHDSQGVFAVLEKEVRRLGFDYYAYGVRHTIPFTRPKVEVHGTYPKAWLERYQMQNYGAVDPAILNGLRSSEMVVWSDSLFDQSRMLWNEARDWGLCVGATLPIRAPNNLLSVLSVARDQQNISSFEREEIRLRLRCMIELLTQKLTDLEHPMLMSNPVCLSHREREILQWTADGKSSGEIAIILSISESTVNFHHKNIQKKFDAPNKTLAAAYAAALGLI
Excerpt: (§1) Previous analysis of the RhlR LBP focused on highly conserved residues that were known from other AHL-binding proteins to be important contacts for AHL molecules, particularly the lactone head group. We performed conservation analyses on 300 LuxR-type receptors to determine variable and moderately conserved residues in the LBP (Fig. 1B) and, in conjunction with our previously determined experimental structure of WT RhlR bound to the synthetic agonist mBTL, used for docking C4- and C6HSL. Based on our docking simulations, C4- and C6HSL occupy a similar position in the LBP as mBTL, a highly efficacious activator of RhlR (Fig. 1C; Fig. S1). We targeted residues A44, G46, T58, L69, Y72, D81, I84, W96, and W108 (Fig. 1B and C). These residues were selected because of their proximity to the acyl tail of C4HSL, as well as the differences in conservation that are observed at these sites. We used an E. coli luciferase reporter assay to monitor ligand-dependent activation of WT RhlR and RhlR variants. WT RhlR and RhlR variants were expressed under the control of an arabinose-inducible promoter (Fig. S2). Transcription was monitored by light production via the expression of the luxCDABE operon controlled by the RhlR-dependent promoter of rhlA. Binding of RhlR to the rhlA promoter is highly dependent on the C4HSL-RhlR interaction, based on ChIP-seq analyses performed in P. aeruginosa as well as previously published E. coli reporter systems ([34], [39]). After expressing WT RhlR and RhlR variants in the E. coli reporter system, we performed dose response assays using C4HSL to calculate the concentration of C4HSL required to activate the reporter system to 50% maximum levels (EC50 value; Table 1). As expected, transcription activation by WT RhlR increased with increased C4HSL levels, with an EC50 value of ~2 µM. We observed a range of responses. Figure 1C depicts the targeted residues, which are colored based on the effect of amino acid substitution.
(§2) RhlR requires the accessory-binding protein, PqsE, for maximal activity. To determine if PqsE expression altered the activation of RhlR variants, we assessed AHL-dependent RhlR activation of the prhlA-luxCDABE reporter in the presence of a third plasmid that constitutively expresses PqsE in E. coli. […] RhlR variants that were still active but with increased EC50 values for C4HSL could have their activity enhanced by PqsE. […] Thus, alterations to the LBP can diminish the additive effect of PqsE-dependent transcription, indicating a potential role of allosteric conformational changes dependent on ligand occupancy. […] RhlR variants at residues I84 and W108 could not be activated by C4HSL, and thus, light levels remained low at all concentrations that were tested. Unlike the aforementioned variants, RhlR I84M/W and RhlR W108F/Y were activated by the expression of PqsE (Fig. S4).
(§3) All E. coli strains in this study were grown overnight with shaking in 5 mL Luria-Bertani (LB) media supplemented with 100 µg/mL ampicillin, 50 µg/mL kanamycin, and 15 µg/mL tetracycline at 37°C overnight. Overnight cultures were diluted 1:100 into fresh media, grown at 37°C with shaking for 2 h until reaching OD600 = 0.4. Cultures were induced with a final concentration of 0.1% arabinose, and 198 μL of the induced culture was mixed with 2 μL of C4HSL dilutions in a clear-bottom, black-opaque 96-well plate (Corning) and grown at 37°C with shaking for 4 h. The C4HSL dilution series was performed 1:1 in dimethyl sulfoxide (DMSO) with a top final concentration of 10 μM. Luminescence and optical density were recorded using a Glomax (Promega) plate reader.

WT RhlR = biological target: T2, WT RhlR (Pseudomonas aeruginosa, UniProt P54292); assay: E. coli prhlA-luxCDABE luciferase reporter assay; type: cell-based; conditions: read-out: EC50
T2 construct: expressed in transfected cells; host or cells: E. coli carrying pBAD-A-rhlR, pCS26-prhlA-luxCDABE and pACYC-pqsE or empty pACYC
T2 sequence (P54292 1-241): T1 sequence (P54292 1-241 T58V) with V58T
Excerpt: as §1, §2, §3

RhlR (T58I) = biological target: T3, RhlR (T58I) (Pseudomonas aeruginosa, UniProt P54292, T58I); assay: E. coli prhlA-luxCDABE luciferase reporter assay; type: cell-based, Escherichia coli
T3 construct: expressed in transfected cells; host or cells: E. coli carrying pBAD-A-rhlR mutant, pCS26-prhlA-luxCDABE and pACYC-pqsE or empty pACYC
T3 sequence (P54292 1-241 T58I): T1 sequence (P54292 1-241 T58V) with V58I
Excerpt: as §1, §2, §3

RhlR (T58F) = biological target: T4, RhlR (T58F) (Pseudomonas aeruginosa, UniProt P54292, T58F); assay: E. coli prhlA-luxCDABE luciferase reporter assay; type: cell-based, Escherichia coli
T4 construct: expressed in transfected cells; host or cells: E. coli carrying pBAD-A-rhlR mutant, pCS26-prhlA-luxCDABE and pACYC-pqsE or empty pACYC
T4 sequence (P54292 1-241 T58F): T1 sequence (P54292 1-241 T58V) with V58F
Excerpt: as §1, §2, §3

RhlR (T58L) = biological target: T5, RhlR (T58L) (Pseudomonas aeruginosa, UniProt P54292, T58L); assay: E. coli prhlA-luxCDABE luciferase reporter assay; type: cell-based, Escherichia coli
T5 construct: expressed in transfected cells; host or cells: E. coli carrying pBAD-A-rhlR mutant, pCS26-prhlA-luxCDABE and pACYC-pqsE or empty pACYC
T5 sequence (P54292 1-241 T58L): T1 sequence (P54292 1-241 T58V) with V58L
Excerpt: as §1, §2, §3

6x-His-PqsE = 6x-His-PqsE (Pseudomonas aeruginosa, UniProt P20581 1-301); assay: cell-based or functional assay

**Q.** For CCCCCCCCCC(=O)CC(=O)N[C@H]1CCOC1=O [3OC12HSL, N-(3-oxododecanoyl)-L-homoserine lactone], which EC50 (LasR) is on record?
**A.** ~2 nM

**Q.** For CCCCCC(=O)N[C@H]1CCOC1=O [C6HSL], which EC50 (RhlR (T58V); Vector (no pqsE)) is on record?
**A.** 809 nM

**Q.** What about the EC50 (RhlR (T58V); pqsE co-expressed) of the same molecule?
**A.** 111 nM

**Q.** What about the EC50 (WT RhlR; Vector (no pqsE)) of the same molecule?
**A.** 12600 nM

**Q.** What about the EC50 (WT RhlR; pqsE co-expressed) of the same molecule?
**A.** 9240 nM

**Q.** What about the EC50 (RhlR (T58I); Vector (no pqsE)) of the same molecule?
**A.** 561 nM

**Q.** What about the EC50 (RhlR (T58I); pqsE co-expressed) of the same molecule?
**A.** 51.1 nM

**Q.** And the EC50 (RhlR (T58F); Vector (no pqsE))?
**A.** 580 nM

**Q.** And the EC50 (RhlR (T58F); pqsE co-expressed)?
**A.** 103 nM

**Q.** What about the EC50 (RhlR (T58L); Vector (no pqsE)) of the same molecule?
**A.** 168 nM

**Q.** What about the EC50 (RhlR (T58L); pqsE co-expressed) of the same molecule?
**A.** 0.908 nM

B1: WT RhlR (receptor)
chain: T1 sequence (P54292 1-241 T58V) with V58T
**Q.** For B1, which “prhlA-luxCDABE reporter in E. coli: C4HSL-RhlR-dependent expression with PqsE expressed from a third plasmid (pACYC) against the empty vector” value (6x-His-PqsE) is on record?
**A.** ~20 fold
